In ChEMBL document CHEMBL1151221, “Three new sesquiterpenes from Croton arboreous” (2004):

System: Mus musculus
Test: Antiinflammatory activity against mouse assessed as inhibition TPA-induced ear edema at 0.5 mg/kg
Format: functional
Design: scale not given: the % may be the effect or the level left

| SMILES | Activity |
| --- | --- |
| C=C1CC[C@@H](O)[C@]2(C)CC[C@@H](C(C)C)[C@@H](O)[C@@H]12 | 29.9% |
| CC1=CC[C@@H](O)[C@]2(C)CC[C@H](C(C)C)[C@H](O)[C@@H]12 | 28% |
| C=C1CC[C@@H]2[C@H]([C@H]3[C@H]1CC[C@]3(C)O)C2(C)C [SPATHULENOL] | 31.5% |
